Results from article PMC9143450, “Oxonitrogenated Derivatives of Eremophilans and Eudesmans: Antiproliferative and Anti-Trypanosoma cruzi Activity” (Molecules, 2022).

How the values were obtained:
[1] = tested on: A549; test: Antiproliferative SRB assay (NCI protocol), A549; type: cell-based, human; settings: for Selectivity index (SI) on tumor cells: CC50 splenocytes / GI50 A549; for GI50: A549 (lung), 48 h drug exposure, SRB, ± SD
Experimental: (§1) In vitro antiproliferative activity was evaluated using the protocol of the National Cancer Institute (NCI) after 48 h of drug exposure using the sulforhodamine B (SRB) assay.
(§2) The following human solid tumor cell lines were used in this study: HBL-100 (breast), HeLa (cervix), SW1573 (non-small cell lung), T-47D (breast), A549 (lung), and WiDr (colon). These cell lines were a kind gift from Prof. G. J. Peters (VU Medical Center, Amsterdam, The Netherlands). Cells were maintained in 25 cm^2 culture flasks in RPMI 1640 supplemented with 5% heat-inactivated fetal calf serum and 2 mM L-glutamine in a 37 °C, 5% CO2, 95% humidified air incubator. Exponentially growing cells were trypsinized and resuspended in antibiotic containing medium (100 units penicillin G and 0.1 mg of streptomycin per mL). Single cell suspensions displaying > 97% viability by trypan blue dye exclusion test were subsequently counted. After counting, dilutions were made to give the appropriate cell densities for inoculation onto 96-well microtiter plates. Cells were inoculated in a volume of 100 μL per well at densities of 5000 (WiDr and T-47D), and 2500 (A549, HeLa, SW1573 and HBL-100) cells per well, based on their doubling times.
(§3) Chemosensitivity tests were performed using the SRB assay of the NCI with slight modifications. Briefly, pure compounds were initially dissolved in DMSO at 400 times the desired final maximum test concentration. Control cells were exposed to an equivalent concentration of DMSO (0.25% v/v, negative control). Each agent was tested in triplicates at different dilutions in the range 1–100 μM. Drug treatment started on day 1 after plating. Drug incubation periods were 48 h, after which cells were precipitated with 25 μL of ice-cold 50% (w/v) trichloroacetic acid and fixed for 60 min at 4 °C. Then, the SRB assay was performed. The optical density (OD) of each well was measured at 530 nm, using BioTek’s PowerWave XS Absorbance Microplate Reader. Values were corrected for background OD from wells containing only culture medium. The percentage growth (PG) was calculated with respect to untreated control cells (C) at each level of drug concentrations based on the difference in OD at the start time (T0) and at the end of drug exposure (T), according to NCI formulas. Therefore, if T is greater than or equal to T0, the calculation is 100 × ((T − T0)/(C − T0)). If T is lower than T0, denoting cell death, the calculation is 100 × ((T − T0)/(T0)). The effect is defined as the growth percentage, where 50% growth inhibition (GI50) represents the concentration at which PG is +50. Based on these calculations, a PG value of 0 corresponds to the number of cells present at the beginning of drug exposure, while negative PG values denote net cell death.

[2] = tested on: SW1573; test: Antiproliferative SRB assay (NCI protocol), SW1573; type: cell-based, human; settings: for Selectivity index (SI) on tumor cells: CC50 splenocytes / GI50 SW1573; for GI50: SW1573 (non-small cell lung), 48 h drug exposure, SRB, ± SD
Experimental: as §1, §2, §3

[3] = tested on: HeLa; test: Antiproliferative SRB assay (NCI protocol), HeLa; type: cell-based, human; settings: for Selectivity index (SI) on tumor cells: CC50 splenocytes / GI50 HeLa; for GI50: HeLa (cervix), 48 h drug exposure, SRB, ± SD
Experimental: as §1, §2, §3

[4] = tested on: T-47D; test: Antiproliferative SRB assay (NCI protocol), T-47D; type: cell-based, human; settings: for Selectivity index (SI) on tumor cells: CC50 splenocytes / GI50 T-47D; for GI50: T-47D (breast), 48 h drug exposure, SRB, ± SD
Experimental: as §1, §2, §3

[5] = tested on: HeLa, T-47D, WiDr, A549, HBL-100, and SW1573 cell lines; test: Antiproliferative SRB assay, whole panel of human solid tumor cell lines; type: cell-based; settings: for GI50: Homo sapiens, minimal to maximal GI50 across the cell lines tested, 48 h, SRB, read-out: GI50 values, range over all cell lines tested; for Antiproliferative activity (in words): solid tumor cell lines evaluated
Experimental: as §1, §2, §3

[6] = tested on: WiDr; test: Antiproliferative SRB assay (NCI protocol), WiDr; type: cell-based, human; settings: for Selectivity index (SI) on tumor cells: CC50 splenocytes / GI50 WiDr; for GI50: WiDr (colon), 48 h drug exposure, SRB, ± SD
Experimental: as §1, §2, §3

[7] = tested on: HBL-100; test: Antiproliferative SRB assay (NCI protocol), HBL-100; type: cell-based, human; settings: for Selectivity index (SI) on tumor cells: CC50 splenocytes / GI50 HBL-100; for GI50: HBL-100 (breast), 48 h drug exposure, SRB, ± SD
Experimental: as §1, §2, §3

[8] = Cytotoxicity on primary cell culture (flow cytometry, PI); type: cell-based; settings: Balb/c, mouse, primary splenocytes (spleen cells), ± SD, read-out: Cytotoxic activity on spleen cells (CC50)
Experimental: The cytotoxicity of the natural sesquiterpenes (1–3) and derivatives (4–19) was determined on primary cell cultures (splenocytes obtained from Balb/c mouse). […] Derivatives of tessaric acid have shown an improvement in CC50 values in comparison with the natural sesquiterpene 1. […] All the derivatives synthesized from alcohol ilicic (compounds 10–19) were more toxic to mammalian cells than the natural compound (3).
The cytotoxicity of the compounds was evaluated on splenocytes obtained from Balb/c mouse (1.5 × 10^5) and incubated with different drug dilutions (5–200 μg/mL) as previously described. Cell death was determined by flow cytometry using a BD FACSaria II cytometer. Cells incubated only with drug vehicle were used as 100% viability control, and death percentage was calculated according to the following formula: Death%=1−(%PI^−cells)drug−treated/(%PI^−cells)100% viability control × 100
The concentration capable of causing 50% cell death (CC50) was determined using a non-linear regression approach.

[9] = tested on: Trypanosoma cruzi epimastigotes (RA strain); test: In vitro anti-Trypanosoma cruzi assay ((3H) thymidine uptake); type: cell-based; settings: for Selectivity Index on T. cruzi epimastigotes: CC50 splenocytes / IC50 epimastigotes; for IC50: Trypanosoma cruzi, epimastigotes (RA strain), ± SD; for Trypanocidal activity (in words): T. cruzi
Experimental: Trypanosoma cruzi epimastigotes (RA strain, from discrete typing unit (DTU) VI) were grown in a biphasic medium. Cultures were maintained by weekly passages at 28 °C [18].
The growth inhibition of T. cruzi epimastigotes was evaluated by a (^3H) thymidine uptake assay as previously described. Natural sesquiterpenes and derivatives were evaluated at concentrations ranging from 1.5 to 50 µg/mL. Benznidazole (Active Pharmaceutical Ingredient) was used as positive control (Elea). The percentage of inhibition was calculated as 100 = {((cpm of treated parasites)/(cpm of untreated parasites)) × 100}.
Figure 5 Effect of the natural sesquiterpene tessaric acid (1), ilicic acid (2), and ilicic alcohol (3) and their derivatives on T. cruzi. Epimastigotes (RA strain) were cultured in the presence of the compounds (50–1.5 µg/mL). Determinations were performed by triplicate. The results are expressed as the mean ± SD. (A) Effect of tessaric acid and derivatives on epimastigotes; (B) Effect of ilicic acid and derivatives on epimastigotes; (C) Effect of ilicic alcohol and derivatives on epimastigotes.

Compound | Selectivity index (SI) on tumor cells [1] | GI50 ([1]; Homo sapiens) | Selectivity index (SI) on tumor cells [2] | GI50 ([2]; Homo sapiens) | Selectivity index (SI) on tumor cells [3] | GI50 ([3]; Homo sapiens) | Selectivity index (SI) on tumor cells [4] | GI50 ([4]; Homo sapiens, T47D) | GI50 [5] | Selectivity index (SI) on tumor cells [6] | GI50 ([6]; Homo sapiens) | GI50 ([7]; Homo sapiens) | CC50 [8] | Selectivity Index on T. cruzi epimastigotes [9] | IC50 [9] | also measured
C=C(C(=O)N(Cc1ccccc1)C(C)(C)C(=O)NCc1ccccc1)C1CCC2(C)CCCC(C)(O)C2C1 (stereo not drawn) [Compound 13] | 5.2 | 5.3 µM | 2.5 | 11 µM | 3.4 | 8 µM | 2.5 | 11 µM | 5.3 to 14 µM | 2.5 | 11 µM | 13 µM | 27.4 µM | 0.5 | 59.6 µM | Selectivity index (SI) on tumor cells [7]: 2.1
C#CCCCc1cn(CC(=C)[C@@H]2CC[C@@]3(C)CCC[C@@](C)(O)C3C2)nn1 (stereo partly drawn) [Compound 17] |  |  |  |  | 1.3 | 31 µM | 1.4 | 29 µM |  | 1.3 | 31 µM |  | 40.4 µM | 2.7 | 14.8 µM | 
N.N.[Cl][Pt][Cl] [Cisplatin, reference compound] |  |  |  |  |  |  |  |  |  |  |  |  |  |  |  | GI50 [1]: 4.9 µM; GI50 [2]: 2.7 µM; GI50 [3]: 1.8 µM; GI50 [4]: 17 µM; GI50 [6]: 23 µM; GI50 [7]: 1.9 µM
C=C(C(=O)N(Cc1ccccc1)C(C)(C)C(=O)NC1CCCCC1)[C@@H]1CCC2=CC(=O)C[C@H](C)[C@@]2(C)C1 [Compound 9] | 2.7 | 28 µM | 2.6 | 30 µM | 3.2 | 24 µM | 3.6 | 21 µM | 17 to 64 µM | 2.0 | 39 µM | 47 µM | 76.5 µM | 1.7 | 45.1 µM | Selectivity index (SI) on tumor cells [7]: 1.6
C=C(C(=O)N(Cc1ccccc1)C(C)(C)C(=O)NC(C)(C)C)[C@@H]1CCC2=CC(=O)C[C@H](C)[C@@]2(C)C1 [Compound 5] |  | > 100 µM |  | > 100 µM |  | > 100 µM |  | > 100 µM |  |  | > 100 µM | > 100 µM | 44.7 µM | 4.8 | 9.3 µM | 
C=C(CO)[C@@H]1CC[C@@]2(C)CCC[C@@](C)(O)[C@@H]2C1 [Compound 3, ilicic alcohol] |  |  |  | > 100 µM |  | > 100 µM |  | > 100 µM |  |  | > 100 µM | > 100 µM |  |  | 156 µM | Antiproliferative activity (in words) [5]: did not show antiproliferative activity; Trypanocidal activity (in words) [9]: nor trypanocidal activity
C=C(C(=O)N(c1ccccc1)C(C)(C)C(=O)NCc1ccccc1)C1CCC2(C)CCCC(C)(O)C2C1 (stereo not drawn) [Compound 12] | 2.9 | 22 µM | 2.4 | 27 µM | 3.8 | 17 µM | 3.2 | 20 µM | 17 to 64 µM | 2.7 | 24 µM | 20 µM | 64.3 µM | 8.0 | 8 µM | Selectivity index (SI) on tumor cells [7]: 3.2
C=C(C(=O)N(c1ccccc1)C(C)(C)C(=O)NC(C)(C)C)[C@@H]1CCC2=CC(=O)C[C@H](C)[C@@]2(C)C1 [Compound 4] | 0.25 | 68 µM | 0.3 | 57 µM | 0.3 | 68 µM | 0.2 | 95 µM |  | 0.2 | 98 µM | > 100 µM | 17.3 µM | 1.1 | 16.3 µM | 
C=C(C(=O)O)[C@@H]1CC[C@@]2(C)CCC[C@@](C)(O)[C@@H]2C1 [Compound 2, ilicic acid] |  |  |  | > 100 µM |  | > 100 µM |  | > 100 µM |  |  | > 100 µM | > 100 µM |  |  | > 198 µM | Antiproliferative activity (in words) [5]: did not show antiproliferative activity; Trypanocidal activity (in words) [9]: nor trypanocidal activity
C=C(Cn1cc(-c2ccccc2)nn1)[C@@H]1CC[C@@]2(C)CCC[C@@](C)(O)C2C1 (stereo partly drawn) [Compound 19] |  |  |  |  | 2.4 | 79 µM | 3.1 | 61 µM |  | 4.6 | 41 µM |  | 187 µM | 3.9 | 48.2 µM | 
C=C(Cn1cc(CCCCCCCCCC)nn1)[C@@H]1CC[C@@]2(C)CCC[C@@](C)(O)C2C1 (stereo partly drawn) [Compound 16] |  |  |  |  | 6.3 | 13 µM | 4.8 | 17 µM | 12 to 17 µM | 6.8 | 12 µM |  | 82.4 µM | 9.4 | 8.8 µM | 
C=C(Cn1cc(Cc2ccccc2)nn1)[C@@H]1CC[C@@]2(C)CCC[C@@](C)(O)C2C1 (stereo partly drawn) [Compound 18] |  |  |  |  |  | > 100 µM | 1.4 | 44 µM |  | 1.6 | 39 µM |  | 62.2 µM | 2.1 | 30.2 µM | 
